Structures can show the parent of a compound that is named as a salt.
Tests used:
GPMVs from HeLa cells = assay: Di4 fluorescence lifetime imaging (lipid packing in GPMVs); parameters: species or system human; conditions: TLCK 1 μM, C6-ceramide 1 μM, MβCD 5 mM; for phase state of GPMVs in FLIM images: room temperature; for average Di4 lifetime: single-phase GPMVs (MβCD: average across all domains), control 2.53±0.06 ns, mean±SD
Source text: It was also of interest how TLCK and C6-ceramide impact other properties of the membrane compared to treatments such as cholesterol depletion that are commonly used to disrupt rafts in cells (Zidovetzki & Levitan, 2007). To test this, we examined their effects on membrane lipid packing and fluidity using a fluorescent reporter of membrane packing, Di-4-[…] (Di4) (Jin et al., 2006; Owen et al., 2006; Sezgin et al., 2014; Levental et al., 2020b; Lorent et al., 2020). As a control, we subjected GPMVs to cholesterol depletion using 5 mM MβCD. The photophysical characteristics of Di4, including its lifetime, are dependent on lipid packing in membranes. In particular, a lower Di4 lifetime is indicative of loose packing and a more fluid membrane environment whereas higher Di4 lifetimes point to a less fluid membranes and tighter lipid packing. […] The phase separated vesicles were characterized by two populations of lifetimes, corresponding to the Lo phase (higher lifetime) and Ld phase (lower lifetime) (FIGS. 11A-11F).
GPMVs were prepared as previously described by Sezgin, E, et al., Nat Protoc 2012, 7 (6), 1042-51. In brief, HeLa cells were washed twice with GPMV buffer (2 mM CaCl2)/10 mM HEPES/0.15 M NaCl, pH 7.4), then washed twice with GPMV active buffer (GPMV buffer containing 25 mM formaldehyde and 2 mM DTT). Cells were then incubated with GPMV active buffer for 1-2 hours at 37° C. with shaking at 90-95 RPM. The GPMV-containing supernatant was decanted into a centrifuge tube and GPMVs were allowed to settle for 1 h. Aliquots of GPMVs (100 μL) were pipetted from the bottom of the Eppendorf tube into separate tubes and treated with DMSO (0.1%), 1 μM TLCK, 1 μM C6-ceramide or 5 mM MbCD. After 5 min, Di 4 […] (Di4) (Thermo Scientific) was added to a final concentration of […] from a stock solution of 1 mg/mL Di4 in ethanol. The GPMVs were then sandwiched between two coverslips coated with 1 mg/mL bovine serum albumin (BSA) solution and allowed to incubate for an additional 20 min prior to lifetime measurements.
Di4 lifetime images were performed on a Leica TCS SP8 system comprising a Leica DMi8 inverted scanning confocal microscope with time-correlated single photon counting (TC-SPC) system and an 80 MHz-pulsed supercontinuum white light laser which allows continuously tunable excitation in the visible range coupled with filter-free detection. Samples were imaged using an HC PL APO CS2 63X/1.20 water objective. Di4 was excited at 488 nm and the emission was collected in the 550-800 nm range. The photon count rate was kept under 0.5 photons per laser pulse by adjusting the laser power, and sufficient frames were cumulatively acquired to obtain at least 100 photons per pixel. The fluorescence decay curves were fit with a bi-exponential re-convolution function adjusted to the instrument response function, and the average intensity-weighted lifetime was calculated for individual vesicles or area of interest and represented in the FLIM images as Di4 lifetime. Data are reported from two independent experiments. Statistical analyses were performed using GraphPad Prism 9.3.0.

[1] = system: GPMVs derived from HeLa cells; assay: Ten-point dose response of re-ordered hits in GPMVs; parameters: species or system human; conditions: for percentage of phase separated vesicles as a function of increasing concentration: freshly made reordered stocks
Description: Compounds identified in the initial screens as potential hits were re-ordered and their identity verified by mass spectrometry by the Vanderbilt Chemical Synthesis Core. Ten-point dose response curves using ˜1:2 serial dilutions were generated producing a range of final concentration of 30 nM to […] and backfilled to yield equivalent concentrations of DMSO. Data were collected in duplicate for each concentration. Two independent dose response experiments were performed.

| SMILES | phase state of GPMVs in FLIM images (GPMVs from HeLa cells) | average Di4 lifetime (GPMVs from HeLa cells) | effect on phase preference of NBD-DSPE (Pordered) versus concentration [1] | percentage of phase separated vesicles as a function of increasing concentration [1] |
| --- | --- | --- | --- | --- |
| Cc1ccc(S(=O)(=O)N[C@@H](CCCCN)C(=O)CCl)cc1 [TLCK hydrochloride, Nα-Tosyl-Lys Chloromethyl Ketone] | mixture of phase separated | 2.43±0.06 ns | dose-dependent | systematically increased |
| CCCCCCCCCCCCC/C=C/[C@@H](O)[C@H](CO)NC(=O)CCCCC [C6 Ceramide (d18:1/6:0)] | contained a single membrane phase | 2.53±0.11 ns | dose-dependent | opposite effect |

— patent US20240085429A1, “ALTERING PROTEIN FUNCTION BY PHARMACOLOGICAL TARGETING OF MEMBRANE DOMAINS” (University of Virginia Patent Foundation, priority 2021, published 2024)
